According to patent US20260176320A1, “MODULATORS OF G-PROTEIN COUPLED RECEPTORS” (priority 2018, published 2026):
Like-named read-outs stand apart in the source and are kept apart here.

Tests used:
Type in all cases: cell-based
[1] = biological target: T1, GLP-1R (Homo sapiens, UniProt P43220); assay: PathHunter β-arrestin assay
Procedure, shortened: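 Cells (5,000/well) plated overnight, then exposed to a 22-point 2-fold agonist dilution series in medium with 0.2% BSA for 90 min at 37 °C, 5% CO2. PathHunter detection reagent added; after 3 h at room temperature in the dark, luminescence read.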

[2] = biological target: T2, GIP-R (Homo sapiens, UniProt P48546); assay: HitHunter cAMP assay (GIP-R); conditions: cAMP; for Emax: read-out: (Emax) GIP-R
T2 sequence (P48546 22-466): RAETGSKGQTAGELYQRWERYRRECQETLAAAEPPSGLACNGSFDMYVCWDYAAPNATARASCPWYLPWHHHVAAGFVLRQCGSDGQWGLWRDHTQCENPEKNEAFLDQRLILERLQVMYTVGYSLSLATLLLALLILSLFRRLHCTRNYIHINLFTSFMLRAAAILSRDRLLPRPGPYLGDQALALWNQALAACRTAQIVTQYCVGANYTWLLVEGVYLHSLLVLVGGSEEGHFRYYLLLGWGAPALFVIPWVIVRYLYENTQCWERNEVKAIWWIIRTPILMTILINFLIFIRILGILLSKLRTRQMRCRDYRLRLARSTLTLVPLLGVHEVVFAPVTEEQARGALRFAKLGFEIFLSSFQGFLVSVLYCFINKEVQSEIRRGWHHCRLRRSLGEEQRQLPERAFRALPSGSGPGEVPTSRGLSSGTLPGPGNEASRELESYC
Procedure, shortened: (§1)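 Suspension cells (10,000/well) in HBSS with 10 mM HEPES, 625 μM IBMX, 0.2% BSA exposed to 22-point 2-fold agonist series in duplicate for 30 min at room temperature. cAMP measured by antibody immunocompetition with overnight development, luminescence read-out.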

[3] = biological target: T1, GLP-1R; assay: HitHunter cAMP assay (GLP-1R); conditions: cAMP; for Emax: read-out: (Emax) GLP-1R
Procedure, shortened: as §1

[4] = PathHunter β-arrestin assay, read-out: β-arrestin activity EC50
[5] = Table 3, read-out: EC50 GIP-R/nM
[6] = Table 3A, read-out: EC50 GIP-R/nM
[7] = Table 3, read-out: EC50 GLP-1R/nM
[8] = Table 3A, read-out: EC50 GLP-1R/nM

T1 sequence (P43220 24-463): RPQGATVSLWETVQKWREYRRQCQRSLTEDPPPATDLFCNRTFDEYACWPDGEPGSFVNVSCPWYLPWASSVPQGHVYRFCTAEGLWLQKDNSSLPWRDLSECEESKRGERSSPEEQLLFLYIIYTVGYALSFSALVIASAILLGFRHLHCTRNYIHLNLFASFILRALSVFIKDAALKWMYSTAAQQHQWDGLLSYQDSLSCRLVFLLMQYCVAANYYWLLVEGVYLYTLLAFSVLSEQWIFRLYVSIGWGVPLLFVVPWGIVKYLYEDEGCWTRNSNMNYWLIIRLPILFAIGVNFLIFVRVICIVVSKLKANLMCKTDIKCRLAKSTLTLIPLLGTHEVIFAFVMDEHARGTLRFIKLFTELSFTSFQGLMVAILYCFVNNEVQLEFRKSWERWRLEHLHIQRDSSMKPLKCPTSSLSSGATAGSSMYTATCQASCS

Structure (SMILES)	EC50 [1, 4] [nM]	Emax ([2]; Table 3) [%]	EC50 [2, 5] [nM]	Emax ([2]; Table 3A) [%]	EC50 [2, 6] [nM]	Emax ([3]; Table 3) [%]	EC50 [3, 7] [nM]	Emax ([3]; Table 3A) [%]	EC50 [3, 8] [nM]	EC50 [1] [nM]	EC50 ([2]; EC50 GIP-R/nM, Table 3A) [nM]	EC50 ([3]; EC50 GLP-1R/nM, Table 3A) [nM]	EC50 ([2]; EC50 GIP-R/nM, Table 3) [nM]	EC50 ([3]; EC50 GLP-1R/nM, Table 3) [nM]	Emax at 1 µM ([2]; read-out: (Emax) GIP-R at 1 μM, Table 3) [%]	Emax at 1 µM ([2]; read-out: (Emax) GIP-R at 1 μM, Table 3A) [%]
CCCCCCCCCCCCCCCC(=O)N[C@@H](CCC(=O)NCCCC[C@H](NC(=O)[C@H](CO)NC(=O)[C@@H]1CCCN1C(=O)[C@@H]1CCCN1C(=O)[C@@H]1CCCN1C(=O)[C@H](C)NC(=O)CNC(=O)[C@H](CO)NC(=O)[C@H](CO)NC(=O)[C@@H]1CCCN1C(=O)CNC(=O)CNC(=O)[C@H](C)NC(=O)[C@H](CC(C)C)NC(=O)[C@H](CC(C)C)NC(=O)[C@H](Cc1c[nH]c2ccccc12)NC(=O)[C@H](CC(N)=O)NC(=O)[C@@H](NC(=O)[C@H](Cc1ccccc1)NC(=O)[C@H](CCC(=O)O)NC(=O)C(C)(C)NC(=O)[C@H](C)NC(=O)[C@H](C)NC(=O)[C@H](CCC(N)=O)NC(=O)[C@H](CCCCN)NC(=O)[C@H](CC(=O)O)NC(=O)[C@H](CC(C)C)NC(=O)[C@H](Cc1ccc(O)cc1)NC(=O)[C@@H](NC(=O)[C@H](CO)NC(=O)[C@H](Cc1ccc(O)cc1)NC(=O)[C@H](CC(=O)O)NC(=O)[C@H](CO)NC(=O)[C@@H](NC(=O)[C@H](Cc1ccccc1)NC(=O)[C@@H](NC(=O)CNC(=O)[C@H](CCC(=O)O)NC(=O)CSCC(=O)NCCN1CCSC1=O)[C@@H](C)O)[C@@H](C)O)[C@@H](C)CC)C(C)C)C(N)=O)C(=O)O [Compound 86]	> 1000	61	1 to 10	61	1 to 10	110	0.1 to 1	110	0.1 to 1	–	–	–	–	–	–	–
CCCCCCCCCCCCCCCC(=O)N[C@@H](CCC(=O)NCCCC[C@H](NC(=O)[C@H](CO)NC(=O)[C@@H]1CCCN1C(=O)[C@@H]1CCCN1C(=O)[C@@H]1CCCN1C(=O)[C@H](C)NC(=O)CNC(=O)[C@H](CO)NC(=O)[C@H](CO)NC(=O)[C@@H]1CCCN1C(=O)CNC(=O)CNC(=O)[C@H](C)NC(=O)[C@H](CC(C)C)NC(=O)[C@H](CC(C)C)NC(=O)[C@H](Cc1c[nH]c2ccccc12)NC(=O)[C@H](CC(N)=O)NC(=O)[C@@H](NC(=O)[C@H](Cc1ccccc1)NC(=O)[C@H](CCC(=O)O)NC(=O)C(C)(C)NC(=O)[C@H](C)NC(=O)[C@H](C)NC(=O)[C@H](CCC(N)=O)NC(=O)[C@H](CCCCN)NC(=O)[C@H](CC(=O)O)NC(=O)[C@H](CC(C)C)NC(=O)[C@H](Cc1ccc(O)cc1)NC(=O)[C@@H](NC(=O)[C@H](CO)NC(=O)[C@H](Cc1ccc(O)cc1)NC(=O)[C@H](CC(=O)O)NC(=O)[C@H](CO)NC(=O)[C@@H](NC(=O)[C@H](Cc1ccccc1)NC(=O)[C@@H](NC(=O)CNC(=O)[C@H](CCC(=O)O)NC(=O)CCC(=O)NCCN1CCCCC1=O)[C@@H](C)O)[C@@H](C)O)[C@@H](C)CC)C(C)C)C(N)=O)C(=O)O [Compound 26]	> 1000	64	1 to 10	64	1 to 10	95	0.1 to 1	95	0.1 to 1	–	–	–	–	–	–	–
CCCCCCCCCCCCCCCC(=O)N[C@@H](CCC(=O)NCCCC[C@H](NC(=O)[C@H](CO)NC(=O)[C@@H]1CCCN1C(=O)[C@@H]1CCCN1C(=O)[C@@H]1CCCN1C(=O)[C@H](C)NC(=O)CNC(=O)[C@H](CO)NC(=O)[C@H](CO)NC(=O)[C@@H]1CCCN1C(=O)CNC(=O)CNC(=O)[C@H](C)NC(=O)[C@H](CC(C)C)NC(=O)[C@H](CC(C)C)NC(=O)[C@H](Cc1c[nH]c2ccccc12)NC(=O)[C@H](CC(N)=O)NC(=O)[C@@H](NC(=O)[C@H](Cc1ccccc1)NC(=O)[C@H](CCC(=O)O)NC(=O)C(C)(C)NC(=O)[C@H](C)NC(=O)[C@H](C)NC(=O)[C@H](CCC(N)=O)NC(=O)[C@H](CCCCN)NC(=O)[C@H](CC(=O)O)NC(=O)[C@H](CC(C)C)NC(=O)[C@H](Cc1ccc(O)cc1)NC(=O)[C@@H](NC(=O)[C@H](CO)NC(=O)[C@H](Cc1ccc(O)cc1)NC(=O)[C@H](CC(=O)O)NC(=O)[C@H](CO)NC(=O)[C@@H](NC(=O)[C@H](Cc1ccccc1)NC(=O)[C@@H](NC(=O)CNC(=O)[C@H](CCC(=O)O)NC(=O)CSCC(=O)NCCn1c(C)cccc1=O)[C@@H](C)O)[C@@H](C)O)[C@@H](C)CC)C(C)C)C(N)=O)C(=O)O [Compound 240]	–	–	–	60	–	–	–	97	–	> 1000	1 to 10	0.1 to 1	–	–	–	–
CCCCCCCCCCCCCCCC(=O)N[C@@H](CCC(=O)NCCCC[C@H](NC(=O)[C@H](CO)NC(=O)[C@@H]1CCCN1C(=O)[C@@H]1CCCN1C(=O)[C@@H]1CCCN1C(=O)[C@H](C)NC(=O)CNC(=O)[C@H](CO)NC(=O)[C@H](CO)NC(=O)[C@@H]1CCCN1C(=O)CNC(=O)CNC(=O)[C@H](C)NC(=O)[C@H](CC(C)C)NC(=O)[C@H](CC(C)C)NC(=O)[C@H](Cc1c[nH]c2ccccc12)NC(=O)[C@H](CC(N)=O)NC(=O)[C@@H](NC(=O)[C@H](Cc1ccccc1)NC(=O)[C@H](CCC(=O)O)NC(=O)C(C)(C)NC(=O)[C@H](C)NC(=O)[C@H](C)NC(=O)[C@H](CCC(N)=O)NC(=O)[C@H](CCCCN)NC(=O)[C@H](CC(=O)O)NC(=O)[C@H](CC(C)C)NC(=O)[C@H](Cc1ccc(O)cc1)NC(=O)[C@@H](NC(=O)[C@H](CO)NC(=O)[C@H](Cc1ccc(O)cc1)NC(=O)[C@H](CC(=O)O)NC(=O)[C@H](CO)NC(=O)[C@@H](NC(=O)[C@H](Cc1ccccc1)NC(=O)[C@@H](NC(=O)CNC(=O)[C@H](CCC(=O)O)NC(=O)CSCC(=O)NCCN1CCCC(C)(C)C1=O)[C@@H](C)O)[C@@H](C)O)[C@@H](C)CC)C(C)C)C(N)=O)C(=O)O [Compound 10]	–	32	–	32	–	95	–	95	–	> 1000	1 to 10	0.1 to 1	1 to 10	0.1 to 1	–	–
CC[C@H](C)[C@H](NC(=O)[C@H](CO)NC(=O)[C@H](Cc1ccc(O)cc1)NC(=O)[C@H](CC(=O)O)NC(=O)[C@H](CO)NC(=O)[C@@H](NC(=O)[C@H](Cc1ccccc1)NC(=O)[C@@H](NC(=O)CNC(=O)[C@H](CCC(=O)O)NC(=O)CSCC(=O)NCCN1Cc2ccccc2C1=O)[C@@H](C)O)[C@@H](C)O)C(=O)N[C@@H](Cc1ccc(O)cc1)C(=O)N[C@@H](CC(C)C)C(=O)N[C@@H](CC(=O)O)C(=O)N[C@@H](CCCCN)C(=O)N[C@@H](CCC(N)=O)C(=O)N[C@@H](C)C(=O)N[C@@H](C)C(=O)NC(C)(C)C(=O)N[C@@H](CCC(=O)O)C(=O)N[C@@H](Cc1ccccc1)C(=O)N[C@H](C(=O)N[C@@H](CC(N)=O)C(=O)N[C@@H](Cc1c[nH]c2ccccc12)C(=O)N[C@@H](CC(C)C)C(=O)N[C@@H](CC(C)C)C(=O)N[C@@H](C)C(=O)NCC(=O)NCC(=O)N1CCC[C@H]1C(=O)N[C@@H](CO)C(=O)N[C@@H](CO)C(=O)NCC(=O)N[C@@H](C)C(=O)N1CCC[C@H]1C(=O)N1CCC[C@H]1C(=O)N1CCC[C@H]1C(=O)N[C@@H](CO)C(=O)N[C@@H](CCCCN)C(N)=O)C(C)C [Compound 152]	–	103	–	103	–	85	–	85	–	> 1000	1 to 10	10 to 100	1 to 10	10 to 100	–	–
CC[C@H](C)[C@H](NC(=O)[C@H](CO)NC(=O)[C@H](Cc1ccc(O)cc1)NC(=O)[C@H](CC(=O)O)NC(=O)[C@H](CO)NC(=O)[C@@H](NC(=O)[C@H](Cc1ccccc1)NC(=O)[C@@H](NC(=O)CNC(=O)[C@H](CCC(=O)O)NC(=O)[C@H]1CC[C@@H](C(=O)NCCN2C(=O)CSC2=O)CC1)[C@@H](C)O)[C@@H](C)O)C(=O)N[C@@H](Cc1ccc(O)cc1)C(=O)N[C@@H](CC(C)C)C(=O)N[C@@H](CC(=O)O)C(=O)N[C@@H](CCCCN)C(=O)N[C@@H](CCC(N)=O)C(=O)N[C@@H](C)C(=O)N[C@@H](C)C(=O)NC(C)(C)C(=O)N[C@@H](CCC(=O)O)C(=O)N[C@@H](Cc1ccccc1)C(=O)N[C@H](C(=O)N[C@@H](CC(N)=O)C(=O)N[C@@H](Cc1c[nH]c2ccccc12)C(=O)N[C@@H](CC(C)C)C(=O)N[C@@H](CC(C)C)C(=O)N[C@@H](C)C(=O)NCC(=O)NCC(=O)N1CCC[C@H]1C(=O)N[C@@H](CO)C(=O)N[C@@H](CO)C(=O)NCC(=O)N[C@@H](C)C(=O)N1CCC[C@H]1C(=O)N1CCC[C@H]1C(=O)N1CCC[C@H]1C(=O)N[C@@H](CO)C(=O)N[C@@H](CCCCN)C(N)=O)C(C)C [Compound 182]	> 1000	–	100 to 1000	–	100 to 1000	96	0.1 to 1	96	0.1 to 1	–	–	–	–	–	12	12
